Test results as given in patent US20200181597A1, “Composition and Application of Arginine-depleting Agents for Cancer, Obesity, Metabolic Disorders, and Related Complications and Comorbidities” (THE HONG KONG POLYTECHNIC UNIVERSITY, priority 2018, published 2020).
Values belong to the molecule of their own block, whether it stands above or below them.

What was measured:
MCF-7 cancer cells = experiment: cells; assay type: cell-based, human; conditions: Homo sapiens
Protocol: (§1) Breast cancer cell lines (e.g. human MCF-7 and MDA-MB-231 cells) were used in these studies. Cancer cells (5×10^3 cells) were seeded in 96-well plates (TPP) with […] complete medium. The plates were incubated in incubator overnight and the cells were allowed to adhere to the plates. […] Each dosage was triplicated in 3 wells to obtain the average change of cell viability. […] The plates were put back into the incubator and further incubated for 4 h. To dissolve the insoluble compound, formazan, formed by MTT, 100 μl of 10% SDS in 0.01 M HCl was added. The plates were incubated at 37° C. overnight. The color change was measured by spectrophotometer at 570 nm. Control set up (without any drug) was used as base to calculate percentage of cell viability which was used to plot the dose response curve by the software Prism 6.0 (GraphPad) to find the IC50 values. […] CalcuSyn software (Biosoft) was used for calculating the CI values.

[1] = tested on: MDA-MB-231 breast cancer cells; experiment: cells; assay type: cell-based, human; conditions: Homo sapiens
Protocol: as §1

HCT116 [2] = experiment: cells; conditions: Homo sapiens, HCT-116, 72 h
Protocol: (§2) The in vitro efficacy of ABD and rhArg fusion protein was tested on human colon cancer cell lines. Human colon cancer cell lines (HCT116, LOVO and HT29) were seeded in 96-well plate at densities of 5×10^3 cells/well. After 1 day of incubation, the culture medium was replaced with medium containing different concentrations (2, 0.4, 0.08, 0.016 and 0.0032 U/ml) of N-ABD094-rhArg (SEQ ID NO: 50). MTT assay was conducted at Day 3 [3 days after N-ABD094-rhArg (SEQ ID NO: 50) treatment] to determine the IC50 values. The culture medium was replaced with MTT solution (1 mg/ml) (Invitrogen) and incubated at 37° C. for 4 h. After incubation, MTT solution was replaced with dimethyl sulfoxide (DMSO), and the absorbance at 570 nm was measured with a reference of 650 nm. The cell viability was determined by dividing the absorbance of N-ABD094-rhArg-treated cells by the average absorbance of untreated cells. […] Three independent sets of experiments (n=3) were performed for each cell line.
(§3) MTT assay was conducted at Day 3. Three independent sets of experiments (n=3) were performed for each cell line.
(§4) For drug-combination assay, a non-constant ratio analysis was performed (Hastak et al., 2010, Cancer Res. 70(20):7970-7980). Colon cancer cells were seeded and after 1 day of incubation, the culture medium was replaced with medium containing different concentrations of N-ABD094-rhArg (SEQ ID NO: 50) (2, 0.4, 0.08, 0.016, 0.0032 U/ml) combined with fixed amount of CQ according to its IC50. MTT assay was conducted at Day 3. The combination index (CI) of combined N-ABD094-rhArg (SEQ ID NO: 50) and CQ treatment was analyzed by software CalcuSyn version 2.1. Three independent sets of experiments (n=3) were performed for each cell line.

HT29 = experiment: cells; conditions: Homo sapiens, HT-29, 72 h
Protocol: as §2, §3, §4

LOVO = experiment: cells; conditions: Homo sapiens, LoVo, 72 h
Protocol: as §2, §3, §4

[3] = molecular target: human serum albumin (HSA) (human, UniProt P02768 25-609); experiment: non-denaturing PAGE; 30 pmol HSA titrated with 7.5-120 pmol fusion protein
A375 = experiment: MTT cytotoxicity of ADI, BCA, ADC; assay type: cell-based, human; conditions: A375, 72 h
Protocol: (§5) For cell proliferation assay, cancer cells (5×10^3) in a volume of 100 μL of growth medium were seeded to each well of a 96-well plate and incubated for 24 h. The culture medium was replenished by arginine free medium (AFM) supplemented with different concentrations of arginine, fresh medium containing various concentrations of different arginine depleting enzymes as well as using these enzymes in combination with citrulline. The plate was incubated for an additional 1-3 days at 37° C. in an incubator containing a humidified atmosphere of 95% air and 5% CO2.
(§6) Quantitative cell proliferation assays were performed using MTT (3-[4,5-dimethylthiazol-2-yl]-2,5-diphenyl tetrazolium bromide) assays as widely described elsewhere. The amount of arginine depleting enzyme required to kill 50% of the cells in a culture was defined as IC50.
(§7) The cytotoxicities of arginine deiminase (ADI), bacterial arginase (BCA) and arginine decarboxylase (ADC) were determined in a comparative study in five tumor cell lines: A375, HeLa, BxPC-3, PANC-1, and HCT116.
(§8) Table 6. IC50 and maximum cytotoxicity of ADI, BCA and ADC on five human cancer cell lines. Cells were treated for 72 h before MTT analysis. Data are the mean of three experiments performed in triplicate. IC50 value is defined as the amount of enzyme needed to achieve 50% inhibition of cell viability. Maximum cytotoxicity is expressed as the maximum percentage of nonviable cells achieved by each enzyme. ADI-resistant cells are defined as cells of which more than 50% survive under the maximum dose of ADI tested.

BxPC-3 = experiment: MTT cytotoxicity of ADI, BCA, ADC; assay type: cell-based, human; conditions: BxPC-3, 72 h
Protocol: as §5, §6, §7, §8

HCT116 [4] = experiment: MTT cytotoxicity of ADI, BCA, ADC; assay type: cell-based, human; conditions: HCT116, 72 h
Protocol: as §5, §6, §7, §8

HeLa = experiment: MTT cytotoxicity of ADI, BCA, ADC; assay type: cell-based, human; conditions: 72 h
Protocol: as §5, §6, §7, §8

PANC-1 = experiment: MTT cytotoxicity of ADI, BCA, ADC; assay type: cell-based, human; conditions: PANC-1, 72 h
Protocol: as §5, §6, §7, §8

[5] = molecular target: human serum albumin (HSA), P02768
[6] = MCF7, read-out: Mean of % Cell Viability
[7] = MDA-MB-231, 72 h, read-out: Mean of % Cell Viability

B2: BCA: bacterial arginase (Bacillus caldovelox arginase) (protein, UniProt P53608 1-299, looked up)
Arginase: MKPISIIGVPMDLGQTRRGVDMGPSAMRYAGVIERLERLHYDIEDLGDIPIGKAERLHEQGDSRLRNLKAVAEANEKLAAAVDQVVQRGRFPLVLGGDHSIAIGTLAGVAKHYERLGVIWYDAHGDVNTAETSPSGNIHGMPLAASLGFGHPALTQIGGYSPKIKPEHVVLIGVRSLDEGEKKFIREKGIKIYTMHEVDRLGMTRVMEETIAYLKERTDGVHLSLDLDGLDPSDAPGVGTPVIGGLTYRESHLAMEMLAEAQIITSAEFVEVNPILDERNKTASVAVALMGSLFGEKLM
IC50 (A375): 0.12 µg/mL
Maximum cytotoxicity (A375): 86.92%
IC50 (BxPC-3): 0.44 µg/mL
Maximum cytotoxicity (BxPC-3): 84.82%
IC50 (HCT116 [4]): 0.22 µg/mL
Maximum cytotoxicity (HCT116 [4]): 81.05%
IC50 (HeLa): 1.25 µg/mL
Maximum cytotoxicity (HeLa): 61.14%
IC50 (PANC-1): 1.81 µg/mL
Maximum cytotoxicity (PANC-1): 63.01%

B3: BCA-6xHis-ABD fusion protein BHA (SEQ ID NO: 75) (protein)
chain: MKPISIIGVPMDLGQTRRGPDMGPSAMRYAGVIERLERLHYDIEDLGDIPIGKAERLHEQGDSRLRNLKAVAEANEKLAAAVDQVVQRGRFPLVLGGDHSIAIGTLAGVAKHYERLGVIWYDAHGDVNTAETSPSGNIHGMPLAASLGFGHPALTQIGGYCPKIKPEHVVLIGVRSLDEGEKKFIREKGIKIYTMHEVDRLGMTRVMEETIAYLKERTDGVHLSLDLDGLDPSDAPGVGTPVIGGLTYRESHLAMEMLAEAQIITSAEFVEVNPILDERNKTASVAVALMGSLFGEKLMHHHHHHAQHDEAVDANSLAEAKVLANRELDKYGVSDYYKNLINNAKTVEGVKALIDEILAALP
specific activity (arginine catabolic activity, DAMO assay) at BHA:HSA mole ratios 1:10, 1:5, 1:1, 5:1 and 10:1 [5]: approximately 200 U/mg

Further lines, with some results ahead:

IC50 (MCF-7 cancer cells; MCF7): 67.2 µM
IC50 ([1]; MDA-MB-231): 73.4 µM
IC50 (HCT116 [2]): > 100 µM
IC50 (HT29): 71 µM
IC50 (LOVO): 15 µM
Molecule: CCN(CC)CCCC(C)Nc1ccnc2cc(Cl)ccc12 (stereo not drawn) [CQ, chloroquine]
viability at 0.16 µM (MCF-7 cancer cells; [6]): 96.3%
viability at 0.8 µM (MCF-7 cancer cells; [6]): 85.9%
viability at 4 µM (MCF-7 cancer cells; [6]): 83.3%
viability at 20 µM (MCF-7 cancer cells; [6]): 72.4%
viability at 100 µM (MCF-7 cancer cells; [6]): 40.7%
viability at 0.16 µM [1, 7]: 99%
viability at 0.8 µM [1, 7]: 98.1%
viability at 4 µM [1, 7]: 82.2%
viability at 20 µM [1, 7]: 75.2%
viability at 100 µM [1, 7]: 43.2%

binding result [3]: binds
B1: N-ABD-rhArg fusion protein (SEQ ID NO: 49) (enzyme)
chain: MHHHHHHDEAVDANSLAEAKVLANRELDKYGVSDYYKNLINNAKTVEGVKALIDEILAALPSGSNNNNNNGSGGMSAKSRTIGIIGAPFSKGQPRGGVEEGPTVLRKAGLLEKLKEQECDVKDYGDLPFADIPNDSPFQIVKNPRSVGKASEQLAGKVAEVKKNGRISLVLGGDHSLAIGSISGHARVHPDLGVIWVDAHTDINTPLTTTSGNLHGQPVSFLLKELKGKIPDVPGFSWVTPCISAKDIVYIGLRDVDPGEHYILKTLGIKYFSMTEVDRLGIGKVMEETLSYLLGRKKRPIHLSFDVDGLDPSFTPATGTPVVGGLTYREGLYITEEIYKTGLLSGLDIMEVNPSLGKTPEEVTRTVNTAVAITLACFGLAREGNHKPIDYLNPPK
notes: It was expressed in E. coli ER2566 and purified on a Ni-IDA column
